The source made the active and inactive calls. The rule behind the calls is not given here.

Experimental findings from ChEMBL document CHEMBL6127112, “Discovery of Novel Nonpeptidic Proteasome Inhibitors Using Covalent Virtual Screening and Biological Evaluation” (ACS Med Chem Lett, 2024) are described below.

One data set addresses 20S proteasome. Kind of data set: (§1) Inhibition of human erythrocyte-derived 20S constitutive proteasome protein using Suc-LLVY-AMC as substrate preincubated for 15 mins followed by substrate addition and measured after 30 mins by multimode plate reader analysis.
Data set [1] concerns the target T1, 20S proteasome (Homo sapiens) (UniProt P49721+P20618+P28074+P28062+P28065+P28072+P25786+P25787+P25788+P25789+P28066+P60900+O14818+Q8TAA3+P40306+A5LHX3+P49720+P28070+Q99436). The experiment in a line: Inhibition of human erythrocyte-derived 20S constitutive proteasome protein at 100 uM using Suc-LLVY-AMC as substrate preincubated for 15 mins followed by substrate addition and measured after 30 mins by multimode plate reader analysis relative to control. The conditions noted are these: time 45.0 min.

For data set [2], the target named is T1, 20S proteasome (Homo sapiens). The experiment in a line: Inhibition of human 20S immunoproteasome protein at 100 uM using Suc-LLVY-AMC as substrate preincubated for 15 mins followed by substrate addition and measured after 30 mins by multimode plate reader analysis relative to control. The data set is classed as protein-complex assay. Particulars: time 45.0 min.

For data set [3] the target is unchanged. Described as §1. The conditions noted are these: time 45.0 min.
A further data set concerns NCI-H929. The experiment in a line: Antiproliferative activity against human NCI-H929 cells assessed as reduction in cell viability incubated for 72 hrs by CellTiter 96 non-radioactive cell proliferation assay. The data set is classed as functional, cell-based.
Data set [4] can be described thus: Cytotoxicity against HEK293T cells assessed as reduction in cell viability incubated for 72 hrs by CellTiter 96 non-radioactive cell proliferation assay. The data set is classed as toxicity, cell-based, HEK-293T. The conditions noted are these: human.
The next data set concerns the target Cathepsin B (Homo sapiens, UniProt P07858). Kind of data set: Inhibition of human Cathepsin B using Ac-RR-AFC as substrate preincubated for 10 to 15 mins followed by substrate addition and measured for 30 to 60 mins by fluorescence based assay.
In the next data set the target is Procathepsin L (Homo sapiens, UniProt P07711). Kind of data set: Inhibition of Cathepsin L (unknown origin) using AFC based peptide as substrate by fluorometric assay.
Sequence of Procathepsin L (P07711 whole entry): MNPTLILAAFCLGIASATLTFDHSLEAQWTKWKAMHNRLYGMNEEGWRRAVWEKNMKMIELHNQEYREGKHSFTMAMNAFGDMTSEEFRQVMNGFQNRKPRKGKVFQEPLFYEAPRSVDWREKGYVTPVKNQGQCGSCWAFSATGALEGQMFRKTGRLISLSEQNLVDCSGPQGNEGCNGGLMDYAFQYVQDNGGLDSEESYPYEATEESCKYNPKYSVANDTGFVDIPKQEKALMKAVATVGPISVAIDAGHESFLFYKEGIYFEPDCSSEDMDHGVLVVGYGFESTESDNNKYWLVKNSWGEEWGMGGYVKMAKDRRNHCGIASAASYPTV
The target in the next data set is T2, Caspase-2 (Homo sapiens, UniProt P42575).
T2 sequence (P42575 whole entry): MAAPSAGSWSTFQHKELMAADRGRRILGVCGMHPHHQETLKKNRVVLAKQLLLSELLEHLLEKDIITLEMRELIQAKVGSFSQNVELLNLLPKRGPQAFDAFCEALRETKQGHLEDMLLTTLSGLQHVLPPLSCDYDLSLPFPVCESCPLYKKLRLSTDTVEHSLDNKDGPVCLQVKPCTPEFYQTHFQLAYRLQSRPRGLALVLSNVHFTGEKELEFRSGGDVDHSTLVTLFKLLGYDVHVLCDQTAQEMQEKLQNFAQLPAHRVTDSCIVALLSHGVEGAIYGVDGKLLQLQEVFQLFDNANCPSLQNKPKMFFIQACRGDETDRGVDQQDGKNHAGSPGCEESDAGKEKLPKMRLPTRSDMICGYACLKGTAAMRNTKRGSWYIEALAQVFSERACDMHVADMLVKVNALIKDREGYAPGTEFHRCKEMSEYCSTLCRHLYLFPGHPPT
The experiment in a line: Inhibition of Caspase-2 (unknown origin) by fluorometric assay.

For data set [5], the target named is Angiotensin-converting enzyme 2 (Homo sapiens, UniProt Q9BYF1). The experiment in a line: Inhibition of human His-tagged ACE2 (18 to 740 residues) using ACE2 fluorogenic substrate incubated for 60 mins by fluorescence based assay.
Sequence of Angiotensin-converting enzyme 2 (Q9BYF1 whole entry, the tested form may be a part): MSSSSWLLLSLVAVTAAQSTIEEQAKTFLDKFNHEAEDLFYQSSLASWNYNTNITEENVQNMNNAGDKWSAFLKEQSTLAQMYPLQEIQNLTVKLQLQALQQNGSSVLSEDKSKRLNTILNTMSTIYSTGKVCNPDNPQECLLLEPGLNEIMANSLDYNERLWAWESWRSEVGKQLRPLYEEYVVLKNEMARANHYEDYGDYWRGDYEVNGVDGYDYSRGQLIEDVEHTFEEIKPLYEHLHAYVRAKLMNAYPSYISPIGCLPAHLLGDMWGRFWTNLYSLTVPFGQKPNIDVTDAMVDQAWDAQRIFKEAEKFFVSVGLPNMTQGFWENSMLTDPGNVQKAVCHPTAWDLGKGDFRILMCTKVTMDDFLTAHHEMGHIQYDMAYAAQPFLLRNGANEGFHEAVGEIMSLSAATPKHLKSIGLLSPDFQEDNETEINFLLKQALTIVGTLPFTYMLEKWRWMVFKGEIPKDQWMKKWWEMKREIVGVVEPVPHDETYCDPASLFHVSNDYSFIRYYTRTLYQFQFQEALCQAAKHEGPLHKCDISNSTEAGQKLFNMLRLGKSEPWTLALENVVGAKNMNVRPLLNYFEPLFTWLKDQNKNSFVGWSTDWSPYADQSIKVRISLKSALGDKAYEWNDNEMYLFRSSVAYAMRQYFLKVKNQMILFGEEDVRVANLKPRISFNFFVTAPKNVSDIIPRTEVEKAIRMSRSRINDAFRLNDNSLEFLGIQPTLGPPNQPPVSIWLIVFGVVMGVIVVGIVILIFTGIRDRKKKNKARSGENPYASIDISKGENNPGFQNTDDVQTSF

Regarding `CC[C@@H](C)NC(=O)C(=O)c1cn(CC(=O)N2CCOCC2)c2ccccc12`, the IC50 (in general, the point on the concentration scale where inhibition reaches its midpoint) against 20S proteasome was determined as 69.2 µM.
Turning to `COc1ccc(NC(=O)C(=O)c2cn(CC(=O)N3CCOCC3)c3ccccc23)cc1OC`, the inhibition (in general, the relative decrease from the control value, in per cent) in [1] was 50%; in [2], 50%; in [3] it was “Dose-Dependent Effect”. Besides, at 20S proteasome, the IC50 was 107 µM.
In the case of `COc1ccc(NC(=O)C(=O)c2cn(CC(=O)N3CCCCC3)c3ccccc23)cc1OC`, the IC50 is 18.5 µM at 20S proteasome; above 100 µM at Cathepsin B; above 100 µM against Procathepsin L; above 100 µM on Caspase-2; above 100 µM in data set [5]. Also, in the data set on NCI-H929, the Activity result was “Dose-Dependent Effect”. The CC50 (usually the concentration that lowers cell viability or growth by half) at 72 h in [4] is above 200 µM.
Turning to `O=C(NCc1ccccc1)C(=O)c1cn(CC(=O)N2CCOCC2)c2ccccc12`, the inhibition in data set [1] was 26%.
Regarding `COc1cc(NC(=O)C(=O)c2ccn(Cc3ccccc3)c2)cc(OC)c1`, the inhibition entry in data set [3] was “inactive”.
Still for that read-out and setting: as for `O=C(Nc1ccc2c(c1)OCCO2)C(=O)c1cn(Cc2ccc(Cl)cc2)c2ccccc12`, the entry is “inactive”.
Take `O=C(Nc1ccccc1)C(=O)c1cn(CC(=O)N2CCOCC2)c2ccccc12`: the inhibition in data set [1] was 55%.
In the case of `O=C(Nc1ccccc1-c1ccccc1)C(=O)c1cn(CC(=O)N2CCOCC2)c2ccccc12`, the inhibition entry in data set [3] is “inactive”.
Still for that read-out and setting: the same measure for `Cc1ccc(NC(=O)C(=O)c2cn(CC(=O)N3CCOCC3)c3ccccc23)c(C)c1`: “inactive”.
For the compound `CC(=O)c1cccc(NC(=O)C(=O)c2cn(CC(=O)N3CCOCC3)c3ccccc23)c1`, on 20S proteasome, the IC50 was found to be 31.3 µM. In other words, the double-digit micromolar range.
On the same count and under the same terms, as for `O=C(Nc1ccc2c(c1)OCCO2)C(=O)c1cn(CC(=O)N2CCOCC2)c2ccccc12`, the figure is 40.8 µM.
Regarding `CCN(CC)C(=O)Cn1cc(C(=O)C(=O)Nc2ccc3c(c2)OCCO3)c2ccccc21`, the IC50 at 20S proteasome was 12.4 µM; against Cathepsin B it was above 100 µM; at Procathepsin L it was above 100 µM; against Caspase-2, above 100 µM; in data set [5], above 100 µM. The Activity entry with NCI-H929 is “Dose-Dependent Effect”. For the same compound, the CC50 at 72 h in data set [4] was above 200 µM.
Take `CC(=O)Nc1ccc(NC(=O)C(=O)c2cn(CC(=O)N3CCOCC3)c3ccccc23)cc1`: the inhibition entry in [3] was “inactive”.
